Source: US20090233999A1, “COMPOSITIONS AND THERAPEUTIC METHODS INVOLVING ISOFLAVONES AND ANALOGUES THEREOF” (NOVOGEN RESEARCH PTY LTD, priority 1999, published 2009)

Key:
rat aortic ring = assay: Rat aortic ring assay, contractile response to noradrenaline; conditions: 1 μg/ml
Method: The vasodilatory capacity was examined ex vivo using the rat aortic ring assay.
Male Sprague-Dawley rats (250±50 g) were euthanased with 80% CO2 and 20% O2. The thoracic aorta was excised and quickly mounted in organ-baths as described. Full concentration-contractile curves were obtained to noradrenaline (0.1 nM-[…]) with and without test compounds delivered at a concentration of 1 μg/ml. Experiments were repeated in n=5 different rings from 5 different animals. Only one compound at any one concentration was tested on any one ring from any one animal. Sigmoidal dose response curves were fitted for the data and the logEC50 and the Ema, calculated (Prism 4, GraphPad Software). The difference in these values between the presence and absence of test compound was calculated using a two-tailed paired t test. The effects of β-oestrodiol and vehicle alone were examined as a positive and negative control respectively.

TNFα = TNFα production by murine splenocytes; format: cell-based, mouse; conditions: 10 μM; LPS
Method: (§1) Male Skh-1 (hairless) mice, approximately six weeks old were killed by cervical dislocation. Single cell suspensions were made from the spleen and erythrocytes were lysed in buffer (0.14M NH4Cl, 17 mM Tris, pH 7.2). The remaining splenocytes were cultured in RPMI-1640 (Gibco) supplemented with 10% (v:v) FBS, 2 mM L-glutamine, pen/strep and 50 μM 2-mercaptoethanol. Splenocytes were added to quadruplicate wells containing either the T cell mitogen concanavalin A (Con A, Sigma-Aldrich—0. 4 μg/well), the B-cell mitogen LPS (Sigma-Aldrich—1 μg/well) or no mitogen, as well as test compound at a concentration of 10 μM in DMSO. Samples were analysed after a 3 day incubation at 37° C. in 5% CO2 in air. Cell viability was assessed by adding MTT to each well, incubating for a further 4 hrs and then developing colour with 0.04N HCl in isopropanol. Supernatant samples were frozen at −80° C. and IL-6, IFN-γ and TNFα were detected in triplicate using ELISA kits (BD Biosciences).

[1] = tested on: splenocytes (T and B cells); assay: Murine splenocyte viability and proliferation (Con A, LPS, no mitogen; MTT); format: cell-based, mouse; conditions: 10 μM, 3 day; for proliferation of T and B cells: Con A / LPS; for effect on non-proliferating (resting) splenocytes: no mitogen
Method: as §1

[2] = tested on: Skh:hr-1 albino mice (UV-induced skin thickening); assay: Murine model of UV irradiation-induced skin oedema; format: in vivo, mouse; conditions: for Change in skin thickness (mean ± SD, ×0.01 mm): 0.2 ml of 20 μM topical ×3
From the text: Groups of 4-5 female Skh:hr-1 albino mice were irradiated with 1×3 MED (minimal erythemal dose) of solar simulated UV radiation, provided by a planar bank of 6 UVA tube (Hitachi 40W F40T 10/BL, black light) and one UVB tube (Philips TL 40W/12RS) with radiation filtered through a sheet of 0.125 mm cellulose acetate (Eastman Chemical Products, Kingport, Term, USA) to give 2.96×10-4 W/cm2 UVA and 1.59×10-5 W/cm2 UVB. The distance of the UV lamp from the irradiance table surface was approximately 20 cm and temperature was controlled with an electric fan. During irradiation, the cages were rotated below the lights to reduce the variation in radiation intensity in different positions.
Either test compound (0.2 ml of a 20 μM solution) or vehicle (propylene glycol/ethanol (EtOH)/water 1:2:1) was applied to the irradiated dorsal skin at 30 min, 2 h and 4 h post-irradiation. Dorsal skin fold measurements were made with a spring micrometer prior to and at 24 hr and 48 h post-UV exposure. The difference in skin thickness pre- and post-exposure to UVR was calculated for each mouse, and the differences examined between test compound and vehicle control were analysed using an unpaired two-tailed t test.
The data are presented in tables, as well as graphically as the mean percentage inhibition of skin fold thickness, calculated as [1−[(mean % change skin thickness of test group/mean % change skin thickness of control group)×100]].

A7r5 = assay: Proliferation of rat aortic smooth muscle cell line A7r5; format: cell-based; conditions: A7R5, 72 h, three days, read-out: VSMC proliferation - IC50 (μM), A7r5
Method: Human umbilical vein smooth muscle cells (HUVSMC), tissue explants from a neonate (HRI— passage 2), were seeded into 96 well plates at 1×10^3 cells per well, and allowed to attach for 24 hours. They were then washed twice and incubated in medium without FBS for 24-48 hours to serum-starve them. Test compounds were prepared in medium without FBS and added to the plates and incubated for one hour. Medium with FBS was added to give a final concentration of 10% and the plates incubated for 5 days until the controls were just confluent. Final analogue concentration was therefore either a series from 150 μM to 1.2 μM, or single concentrations of 10 μM. The difference in absorbance between treated cells and untreated cells was calculated using the formula, test/control*100, to obtain the percentage change caused by the test compound. As well, an IC50 for each compound was calculated.
The effect of test compounds a rat aortic smooth muscle cell line (A7r5) and another cell line from the media of rat aorta (A10) was examined. The methodology was the same as for HUVSMC, except that the cells were treated with compound for three days.

IL-6 = IL-6 production by murine splenocytes; format: cell-based, mouse; conditions: 10 μM; Con A
Method: as §1

NFκB = NFκB promoter activity, beta-lactamase reporter THP-1 cells stimulated with TNFα; format: cell-based; conditions: 30 μM; TNFα-stimulated THP-1 cells
Method: The assay utilised a genetically modified THP-1 cell line containing a stably-transfected beta-lactamase reporter gene under control of the NFkB response element and GeneBLAzer® beta-lactamase technology (Invitrogen Corp). The cells respond to stimulation with TNFα, causing activation of the NFκB signaling pathway. Co-incubation of cells with TNFα and test material allows quantitative determination of the ability of test material to inhibit TNFa-stimulated beta-lactamase production. An inflammatory index was calculated as the ratio of beta-lactamase product to beta-lactamase substrate.
THP-1 cells were seeded into wells of a 96-well plate in the presence of RPMI 1640 medium. TNFα was added to each well to give a final concentration of 7.5 ng/ml and dialyzed bovine serum was added. Compounds dissolved in DMSO were then added. Each plate also contained no-cell controls, no-serum controls and serum controls. Plates were incubated for 5 h at 37° C. to allow for NFκB-stimulated beta-lactamase production. LiveBLAzer™ FRET B/G Substrate (CCF4-AM) substrate was then added to assay. Once CCFA-AM enters a cell, it is converted to negatively charged CCF4 by endogenous esterases. Excitation of this substrate at 409 nm leads to efficient FRET between the coumarin and fluorescein moieties, resulting in a green fluorescence detectable at 530 nm. The presence of beta-lactamase leads to cleavage of CCF4 and results in a loss of FRET, resulting in a robust blue fluorescent signal detectable at 460 nm. Thus, activity of beta-lactamase (a marker of NFκB-promoter activity) is measured as a product to substrate ratio (blue/green fluorescence ratio: 460 nm/530 nm).

[3] = 24 hrs post-irradiation, vehicle 78 ± 23
[4] = 48 hrs post-irradiation, vehicle 147 ± 37

Row | Compound | contractile response (logEC50) of the aortic ring to noradrenaline (rat aortic ring) | TNFα synthesis by B cells (TNFα) | proliferation of T and B cells [1] | effect on non-proliferating (resting) splenocytes [1] | Change in skin thickness (mean ± SD, ×0.01 mm) [2, 3] | Change in skin thickness (mean ± SD, ×0.01 mm) [2, 4] | IC50 (A7r5) | IL-6 production in T cells (IL-6) | UV-induced inflammation at 48 hrs ([2]; 48 hrs) | NFκB promoter activity (NFκB) | strength of the contractile response (Emax) (rat aortic ring) | UV-induced inflammation at 24 hrs ([2]; 24 hrs)
1 | Oc1ccc2c(c1)OCC(c1ccc(Br)cc1)=C2 [Cpd. 21, 4′-Bromo-7-hydroxyisoflav-3-ene] | inhibited | induced |  |  |  |  |  |  |  |  |  | 
2 | COc1cccc(C2=Cc3ccc(O)cc3OC2)c1 [Cpd. 16, 7-Hydroxy-3′-methoxyisoflav-3-ene] |  | induced | augmented | augmented | 61 ± 13 ×0.01 mm | 111 ± 15 ×0.01 mm | 48 µM | reduced |  |  |  | 
3 | COc1ccc(C2=Cc3ccc(O)c(C)c3OC2)cc1OC [Cpd. 19, 7-Hydroxy-3′,4′-dimethoxy-8-methylisoflav-3-ene] |  | inhibited |  |  | 63 ± 8.1 ×0.01 mm | 96 ± 5 ×0.01 mm |  | reduced | significantly inhibited | significantly inhibited |  | 
4 | Cc1c(O)ccc2c1OCC(c1cccc(O)c1)=C2 [Cpd. 14, 3′,7-Dihydroxy-8-methylisoflav-3-ene] |  | induced | augmented | augmented | 77 ± 5.6 ×0.01 mm | 137 ± 16 ×0.01 mm | 33 µM |  |  | significantly inhibited |  | 
5 | Oc1ccc(C2=Cc3ccc(O)c(Br)c3OC2)cc1 [Cpd. 20, 4′,7-Dihydroxy-8-bromoisoflav-3-ene] | significantly inhibited | induced | inhibited | suppressive | 38 ± 4 ×0.01 mm | 123 ± 39 ×0.01 mm | 33 µM | most marked |  | significantly inhibited | reduced | significantly inhibited
6 | COc1ccc(C2=Cc3ccc(O)cc3OC2)cc1OC [Cpd. 18, 7-Hydroxy-3′,4′-dimethoxyisoflav-3-ene] | inhibited |  |  |  |  |  | 74 µM | reduced |  | significantly inhibited |  | 
